Reference: patent US10993957B2 (NuCana plc, priority 2011, dated 2021)
Like-named read-outs stand apart in the source and are kept apart here.

Assays:
[1] = Stability in buffer at pH 1 by 31P NMR; assay type: physicochemical; conditions: 14 hours
Protocol: The stability of the prodrug CPF-373 towards hydrolysis at pH=1 was studied using in situ ^31P NMR (202 MHz). The ProTide CPF-373 (1) (2.6 mg) was dissolved in MeOD (0.1 mL) after which 0.5 mL buffer (pH=1) (prepared from equal parts of 0.2 M HCl and 0.2 M KCl) was added. Then the sample was transferred into an NMR tube, and a ^31P NMR experiment was performed at 37° C. recording the data every 12 minutes for 14 hours. Data were processed and analysed with the Bruker Topspin 2.1 program.
A chemical hydrolysis was evaluated under experimental conditions at pH 1 and pH 8 and monitored by ^31P NMR. During the assay (14 h) under acidic conditions (pH 1) only two peaks representing the two diastereoisomers were recorded.

[2] = molecular target: Thymidine Phosphorylase purified from Escherichia coli (Escherichia coli, UniProt P07650); assay: Phosphorylase assay by in situ 19F NMR; conditions: potassium phosphate buffer 300 nM, pH 7.4; after 5 min, 14 h and 72 h
Thymidine Phosphorylase purified from Escherichia coli, sequence (P07650 whole entry): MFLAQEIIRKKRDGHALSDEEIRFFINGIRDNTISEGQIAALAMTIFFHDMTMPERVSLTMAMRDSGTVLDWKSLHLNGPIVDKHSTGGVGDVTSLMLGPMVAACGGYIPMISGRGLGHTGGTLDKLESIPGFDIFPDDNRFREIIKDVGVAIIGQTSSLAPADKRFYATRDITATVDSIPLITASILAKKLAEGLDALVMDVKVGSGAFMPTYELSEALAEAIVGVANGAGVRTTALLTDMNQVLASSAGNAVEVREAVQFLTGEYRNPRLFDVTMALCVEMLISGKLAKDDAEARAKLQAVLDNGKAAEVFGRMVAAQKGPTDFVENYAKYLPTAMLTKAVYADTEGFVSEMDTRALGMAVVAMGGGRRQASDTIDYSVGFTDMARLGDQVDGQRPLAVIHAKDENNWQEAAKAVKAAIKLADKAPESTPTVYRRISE
Protocol: Two potassium phosphate buffers at pH=7.4, 200 nM solution and 300 nM solution respectively, were used as phosphate donor. Units of enzyme were defined as the amount of enzyme required to hydrolyse about 0.25 mg of inosine per min used as standard. Assays were conducted for 30 minutes.

Cem/hEnt-0 = assay: Cytostatic assay, CEM cells lacking the hEnt1 transporter; assay type: cell-based; conditions: Table 8; read-out: IC50 Cem/hEnt-0
Excerpt: (§1) Data are mean (±SD) of at least two to four independent experiments. Table 8 identifies the phosphoramidate motif of compounds embodying the present invention, as discussed above with respect to Table 6, but with “Naph” standing for 1-naphthyl.

L1210/TK^− = assay: Cytostatic assay, thymidine kinase-deficient L1210/TK^− cells; assay type: cell-based, murine; conditions: for IC50: Table 6, read-out: IC50 L1210/TK^−; for CC50: L1210, Table 1, read-out: CC50 L1210/TK^−
Cem/0 = assay: Cytostatic assay, CEM/0 cells; assay type: cell-based, human; conditions: for IC50: Table 6, read-out: IC50 Cem/0; for CC50: Table 1, read-out: CC50 Cem/0
Excerpt: (§2) The cell lines employed were L1210/0 (a leukemia cell line), FM3A/0 (a breast cancer cell line), Cem/0 (an acute lymphoblastic leukemia cell line) and HeLa (a cervical cell line).

Cem/TK^− = assay: Cytostatic assay, thymidine kinase-deficient CEM/TK^− cells; assay type: cell-based, human; conditions: for IC50: Table 6, read-out: IC50 Cem/TK^−; for CC50: Table 1, read-out: CC50 Cem/TK^−
L1210/0 = assay: Cytostatic assay, L1210/0 cells; assay type: cell-based, murine; conditions: for IC50: read-out: IC50 L1210/0
Excerpt: as §2

L1210.Hyor = assay: Cytostatic assay, Mycoplasma hyorhinis-infected L1210 cells
Procedure, shortened: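 Proliferation read by Coulter counting after 48 h exposure of compound-treated L1210 cells carrying M. hyorhinis infection (60,000 cells/well, DMEM with 10% FBS, 37 °C). Values also given as percent activity retained in infected cells.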

Cem/hEnt-1 = assay: Cytostatic assay, CEM cells containing the hEnt1 transporter; assay type: cell-based
Excerpt: as §1

HeLa/TK^− = assay: Cytostatic assay, HeLa/TK^− cells; assay type: cell-based; conditions: for IC50: Table 6, read-out: IC50 HeLa/TK^−; for CC50: Table 1, read-out: CC50 HeLa/TK^−
Excerpt: as §2

HeLa = assay: Cytostatic assay, HeLa cells; assay type: cell-based; conditions: for IC50: Table 6, read-out: IC50 HeLa; for CC50: Table 1, read-out: CC50 HeLa
Excerpt: as §2

FM3A/TK^− = assay: Cytostatic assay, FM3A/TK^− cells; assay type: cell-based; conditions: Mus musculus, read-out: CC50 FM3A/TK^−
FM3A/0 = assay: Cytostatic assay, FM3A/0 cells; assay type: cell-based; conditions: Mus musculus, FM3A/0, read-out: CC50 FM3A/0
Protocol: The samples were assayed for biological activity versus a range of tumour cell lines with data recorded in Table 1 below. […] The cell lines employed were L1210/0 (a leukemia cell line), FM3A/0 (a breast cancer cell line), Cem/0 (an acute lymphoblastic leukemia cell line) and HeLa (a cervical cell line).

[3] = Stability in human serum by in situ 31P NMR; assay type: in vitro ADME; conditions: 37° C., after 13 h and 30 min
Protocol: The stability of the prodrug CPF-373 in the presence of human serum was studied using in situ ^31P NMR (202 MHz). The ProTide CPF-373 (1) (5.0 mg) was dissolved in DMSO (0.05 mL) and D2O (0.15 mL). Then the sample was transferred into an NMR tube, which was inserted in the NMR chamber at 37° C. (with enough solvent to obtain a control NMR reading of the blank). Then 0.3 ml human serum was quickly added to the sample in the NMR tube. NMR experiments were programmed to record data every 15 minutes for 12 hours and 30 minutes. Because of excess noise and poor shimming profiles (most likely due to the biological media and concentration), individual spectra were further processed. After normal Fourier transform processing, each spectrum was deconvoluted (Lorentz-Gauss deconvolution) to reveal solely the frequency and area of spectral peaks without the baseline. Data recorded were processed and analysed with the Bruker Topspin 2.1 program.
Chemical stability studies on the prodrug CPF-373 (1) have been performed by exposing the compound to human serum and to aqueous buffers (pH 1.0 and 8.0) using in situ ^31P NMR. […]
The stability of compound CPF 386 in the presence of human serum was investigated using in situ ^31P NMR. A control ^31P NMR data of compound CPF 386 in DMSO and D2O were recorded. […] The ^31P NMR data were recorded every 15 minutes over 14 h. […]

human UP = human UP (Homo sapiens, UniProt Q16831); assay: Phosphorolysis by human UP, HPLC; conditions: 100 μM compound, room temperature, 0-40 min
human UP, sequence (Q16831 whole entry): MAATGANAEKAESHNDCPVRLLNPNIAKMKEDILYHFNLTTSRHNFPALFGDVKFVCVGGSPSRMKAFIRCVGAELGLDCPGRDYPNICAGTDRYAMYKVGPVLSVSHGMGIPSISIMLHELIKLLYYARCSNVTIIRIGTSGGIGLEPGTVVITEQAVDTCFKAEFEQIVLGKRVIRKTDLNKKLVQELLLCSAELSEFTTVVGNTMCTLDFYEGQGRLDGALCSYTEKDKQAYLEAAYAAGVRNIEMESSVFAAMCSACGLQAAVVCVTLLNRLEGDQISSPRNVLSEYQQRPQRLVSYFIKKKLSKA
Protocol: Reaction mixtures containing 100 μM test compound and recombinant TP or UP (human TP: 8.6 ng/μL; E. coli TP: 3.0 ng/μL; human UP: 4 ng/mL) in a total volume of 500 μL reaction buffer (10 mM TrisHCl; 300 μM NaCl; 1 mM EDTA; 2 mM KH2PO4/K2HPO4) were incubated at room temperature. At different time points (i.e. 0, 20, 40 min) 100 μL aliquots of the reaction mixtures were withdrawn and heated at 95° C. for 3 min to inactivate the enzyme. […] The separation of Urd from uracil was performed by a linear gradient from 100% separation buffer (see above) to 60% separation buffer+40% acetonitrile (3 min 100% separation buffer; 6 min linear gradient of 100% separation buffer to 60% separation buffer+40% acetonitrile; 6 min 60% separation buffer+40% acetonitrile, followed by equilibration at 100% separation buffer).

[4] = Mus musculus, L1210/0, Table 1, read-out: CC50 L1210/0
[5] = Mus musculus, L1210, read-out: IC50 L1210.Hyor

SMILES | IC50(L1210.Hyor)/IC50(L1210/0) (L1210.Hyor; Table 7) | CC50 (L1210/TK^−; Mus musculus) | IC50 (L1210/TK^−; Mus musculus, L1210) | CC50 (Cem/0; Homo sapiens, CCRF-CEM) | IC50 (Cem/0; Homo sapiens, CCRF-CEM) | CC50 (FM3A/TK^−) | CC50 (Cem/TK^−; Homo sapiens, CEM-TK(-)) | IC50 (Cem/TK^−; Homo sapiens, CEM-TK(-)) | CC50 (L1210/0; [4]) | IC50 (L1210/0; Mus musculus, L1210/0, Table 6) | IC50 (L1210/0; Mus musculus, L1210/0, Table 7) | CC50 (FM3A/0) | IC50 (L1210.Hyor; [5]) | CC50 (HeLa/TK^−; Homo sapiens, HeLa) | IC50 (HeLa/TK^−; Homo sapiens, HeLa) | CC50 (HeLa; Homo sapiens, HeLa) | IC50 (HeLa; Homo sapiens, HeLa) | other results
C[C@H](NP(=O)(OC[C@H]1O[C@@H](n2cc(F)c(=O)[nH]c2=O)CC1O)Oc1ccccc1)C(=O)OCc1ccccc1 (stereo partly drawn) [CPF 381, 5-Fluoro-2′-deoxyuridine-5′-O-[phenyl(benzoxy-L-alaninyl)]phosphate] | 5.8 |  |  |  |  |  |  |  |  |  |  |  |  |  |  |  |  | Stability towards hydrolysis at pH 1 [1]: highly stable; Phosphorolysis by thymidine phosphorylase (19F NMR) [2]: did not show any evidence of phosphorolysis; IC50 (Cem/hEnt-0): 1400 ± 650 nM; IC50 (L1210/TK^−): 13000 ± 8000 nM; IC50 (Cem/0): 180 ± 30 nM; IC50 (Cem/TK^−): 22000 ± 7000 nM; CC50 (L1210/0; Table 2, mycoplasma negative cells, read-out: CC50 L1210): 26 nM; IC50 (L1210/0; Table 6): 28 ± 7 nM; IC50 (L1210/0; Table 7): 26 ± 8 nM; % Retention (L1210.Hyor; CC50 L1210 × 100 ÷ CC50 L1210/Hyor): 18%; CC50 (L1210.Hyor; read-out: CC50 L1210/Hyor, Table 2, mycoplasma positive cells): 150 nM; IC50 (L1210.Hyor; read-out: IC50 L1210.Hyor, Table 7): 150 ± 6 nM; IC50 (Cem/hEnt-1; Table 8, read-out: IC50 Cem/hEnt-1): 130 ± 50 nM; IC50 (Cem/hEnt-1; in the presence of NBMPR, read-out: IC50 Cem/hEnt-1 + NBMPR): 720 nM; IC50 (Cem/hEnt-1; in the presence of dipyridamole, read-out: IC50 Cem/hEnt-1 + dipyridamole): 660 nM; IC50 (HeLa/TK^−): 19000 ± 2000 nM; IC50 (HeLa): 130 ± 10 nM
CCOC(=O)[C@H](C)NP(=O)(OC[C@H]1O[C@@H](n2cc(F)c(=O)[nH]c2=O)CC1O)Oc1ccccc1 (stereo partly drawn) [CPF 383] | 5 | 940 ± 180 nM | 940 ± 180 nM | 920 ± 110 nM | 920 ± 110 nM | 4100 ± 2000 nM | 14000 nM | 14000 nM | 130 ± 40 nM | 130 ± 40 nM | 110 ± 2.1 nM | 640 ± 570 nM | 540 ± 120 nM | 9800 ± 1400 nM | 9800 ± 1400 nM | 480 ± 190 nM | 480 ± 190 nM | 
CC(C)OC(=O)[C@H](C)NP(=O)(OC[C@H]1O[C@@H](n2cc(F)c(=O)[nH]c2=O)CC1O)Oc1ccccc1 (stereo partly drawn) [CPF 384, 5-Fluoro-2′deoxyuridine-5′-O-[phenyl(isopropoxy-L-alaninyl)] phosphate] | 14 | 1100 ± 100 nM | 1100 ± 100 nM | 1000 ± 100 nM | 1000 ± 100 nM | 13000 ± 1000 nM | 30000 ± 10000 nM | 30000 ± 10000 nM | 76 ± 22 nM | 76 ± 22 nM | 50 ± 13 nM | 360 ± 250 nM | 700 ± 100 nM | 25000 ± 11000 nM | 25000 ± 11000 nM | 710 ± 150 nM | 710 ± 150 nM | 
CCOC(=O)[C@H](C)NP(=O)(OC[C@H]1O[C@@H](n2cc(F)c(=O)[nH]c2=O)CC1O)Oc1cccc2ccccc12 (stereo partly drawn) [CPF 386, 5-Fluoro-2′deoxyuridine-5′-O-[1-naphthyl (ethoxy-L-alaninyl)] phosphate] | 3.4 | 360 ± 10 nM | 360 ± 10 nM | 250 ± 40 nM | 250 ± 40 nM |  | 1600 ± 200 nM | 1600 ± 200 nM | 31 ± 5 nM | 31 ± 5 nM | 28 ± 2.1 nM |  | 95 ± 2.8 nM | 2800 nM | 2800 nM | 220 ± 40 nM | 220 ± 40 nM | parent compound in reaction mixture with human serum [3]: 96%
O=c1ccn([C@@H]2O[C@H](CO)[C@@H](O)[C@H]2O)c(=O)[nH]1 [uridine, reference compound] |  |  |  |  |  |  |  |  |  |  |  |  |  |  |  |  |  | Phosphorolysis by human UP (human UP): converted to uracil
